Experiments:
in vitro = details: for Papp at 5 h, 100 μMole / MEAN LAG TIME: female, New Zealand Albino, rabbit; for MEAN LAG TIME: 100 μMole
Protocol: The procedure used is summarized below.
Female New Zealand Albino rabbits were sacrificed by first anaesthetizing with ketamine (30 mg/Kg) and xylazine (6 mg/Kg) followed by an injection of an overdose of […]* (sodium pentobarbital, 1 ml of a 26% solution) into the marginal ear vein. The intact eyes, along with the lids and conjunctival sacs were then enucleated and immediately stored in about 70 ml of fresh BSS PLUS® irrigation solution saturated with O2/CO2 (95:5).
To accomplish this, the exposed cornea of the enucleated eye was carefully placed on a corneal holder, which maintained the cornea curvature and held the eye in place. Various tissues of the eye were dissected leaving the cornea, a small ring of scleral tissue, and the palpebral conjunctiva. The conjunctival and scleral tissue served as a gasket and permitted the cornea to be suspended within the corneal ring in the center of the perfusion chamber. The chamber was jacketed to maintain the cornea and the perfusion solution at 35° C. The corneal holder and chamber were made from acrylic plastic at the University of Iowa, Iowa City, Iowa.
The mounted cornea was clamped between the two cylindrical compartments of the perfusion chamber and 7.5 mls of BSS PLUS® irrigating solution was placed in the receiving (endothelial) side of the chamber with stirring and bubbling of the O2/CO2 (95:5) mixture. Then, 7 mls of the fluoroquinolone dissolved in BSS PLUS® irrigating solution at a concentration of 100 μMole (this is approximately 4 mg/100 mL) was added to the donor (epithelial) side of the chamber also with stirring and bubbling of the O2/CO2 (95:5) mixture. The difference in volume ensured that the cornea would not buckle during the course of the experiment.
Samples (150 μL) were withdrawn from the receiving chamber every 30 minutes over a five hour period, and an equal volume of irrigating solution was immediately added to the receiving chamber to maintain a constant volume. The concentration of fluoroquinolones in the samples was determined using reverse-phase HPLC. […] Mixtures of acetonitrile and 31 mM phosphoric acid/sodium phosphate buffer at pH=3 were the mobile phase. The mobile phase (acetonitrile:phosphate buffer v/v) and UV detection wavelengths for each of the fluoroquinolones was determined beforehand. […] After each permeability experiment, the cornea was trimmed of excess scleral tissue and conjunctiva, weighed and dried overnight over phosphorus pentoxide in a vacuum desiccator. It was then reweighed in order to determine the hydration level. […] If the cornea is damaged in any way the hydration level rises. Data from corneas with hydration levels over 83% are discarded.
The rate of drug accumulation in the receiving (endothelial) chamber, and the apparent Permeability Coefficients (Papp) of the fluoroquinolones were then calculated as follows: […]

Acinetobacter baumannii = assay: In vitro antimicrobial activity, agar dilution MIC; assay type: cell-based; details: test organism 26, Acinetobacter baumannii
Protocol: (§1) The activity of the compounds of the present invention was evaluated using an in vitro assay. Microorganisms were prepared from growth on agar media, in broth culture, or from thawed cryopreserved cultures. Fungal cultures were filtered to remove mycelial elements.
(§2) Using Mueller Hinton II Broth, 0.9% saline or other appropriate media, a suspension of each culture was prepared and adjusted to a turbidity equivalent to that of a 0.5 McFarland Standard. (Cultures adjusted to the 0.5 McFarland Standard generally contain approximately 1.0×10^8 CFU/mL). The adjusted suspension for each culture was diluted 1:10 in the appropriate media so that the inoculum concentration approximates 1.0×10^7 CFU/mL.
(§3) The antimicrobial agent to be tested was weighed and diluted with a volume of sterile distilled water calculated to yield the necessary starting concentration. Serial 1:2 dilutions of the antimicrobial agent in sterile distilled water were prepared (approximately 10-12 test concentrations comprise a reasonable experimental range). A known amount of each antimicrobial dilution was combined with an aliquot of agar medium calculated to yield the desired final antimicrobial test concentration and dispensed onto plates.
(§4) The amount of antimicrobial agent to be weighed was determined using the following equation: […]
(§5) Antimicrobial stock solutions were prepared at concentrations 5-10 times the highest concentration to be tested (routinely 1024 μg/mL). […] The stock solution was diluted to appropriate concentration using sterile water to form a working solution. The working solution was diluted two-fold, in sterile water, until the desired concentration is obtained.
(§6) Mueller Hinton II agar was prepared as described by the manufacturer. Mueller Hinton II agar may be supplemented with 5% defibrinated sheep blood for testing streptococci. Agar was added to the serially diluted antimicrobial solution in each container. The solutions were mixed thoroughly and poured into petri dishes (about 25 mL/plate). The pH of the agar at 25° C. should be between 7.2 and 7.4.
(§7) At least one inocula control plate was inoculated (agar medium without antimicrobial agent) from each seed plate before inoculating test plates. Test plates were inoculated starting at the lowest concentration and proceeding to the highest concentration. After all test plates were inoculated, an additional control plate (agar medium without antimicrobial agent) was inoculated. The plates were incubated in a non-CO2 incubator (or CO2 incubator depending on growth requirements); 18-24 hours at 32-35° C. was sufficient for most organisms.
(§8) All inoculation points on the agar surface were examined for the presence of growth as compared to the inoculum control plates. The results were summarized and use to determine Minimal Inhibitory Concentrations (MICs): The MIC is the lowest concentration of the antimicrobial agent which prevents visible growth of the organism (negative score).

Acinetobacter junii = assay: In vitro antimicrobial activity, agar dilution MIC; assay type: cell-based
Protocol: as §1, §2, §3, §4, §5, §6, §7, §8

[1] = system: Corynebacterium amycolatum; assay: In vitro antimicrobial activity, agar dilution MIC; assay type: cell-based
Protocol: as §1, §2, §3, §4, §5, §6, §7, §8

Enterobacter hormaechei = assay: In vitro antimicrobial activity, agar dilution MIC; assay type: cell-based
Protocol: as §1, §2, §3, §4, §5, §6, §7, §8

Escherichia coli = assay: In vitro antimicrobial activity, agar dilution MIC; assay type: cell-based
Protocol: as §1, §2, §3, §4, §5, §6, §7, §8

MRSE = assay: In vitro antimicrobial activity, agar dilution MIC; assay type: cell-based
Protocol: as §1, §2, §3, §4, §5, §6, §7, §8

MSSA = assay: In vitro antimicrobial activity, agar dilution MIC; assay type: cell-based; details: test organism 6, MSSA
Protocol: as §1, §2, §3, §4, §5, §6, §7, §8

Staphylococcus aureus = assay: In vitro antimicrobial activity, agar dilution MIC; assay type: cell-based
Protocol: as §1, §2, §3, §4, §5, §6, §7, §8

[2] = system: Staphylococcus epidermidis; assay: In vitro antimicrobial activity, agar dilution MIC; assay type: cell-based
Protocol: as §1, §2, §3, §4, §5, §6, §7, §8

[3] = system: Staphylococcus haemolyticus; assay: In vitro antimicrobial activity, agar dilution MIC; assay type: cell-based
Protocol: as §1, §2, §3, §4, §5, §6, §7, §8

Streptococcus mitis = assay: In vitro antimicrobial activity, agar dilution MIC; assay type: cell-based
Protocol: as §1, §2, §3, §4, §5, §6, §7, §8

[4] = test organism 27, Acinetobacter junii
[5] = test organism 28, Acinetobacter junii
[6] = test organism 29, Acinetobacter junii
[7] = test organism 24, Corynebacterium amycolatum
[8] = test organism 25, Corynebacterium amycolatum
[9] = test organism 30, Enterobacter hormaechei
[10] = test organism 31, Enterobacter hormaechei
[11] = test organism 32, Escherichia coli
[12] = test organism 33, Escherichia coli
[13] = test organism 34, Escherichia coli
[14] = test organism 1, Staphylococcus aureus
[15] = test organism 2, Staphylococcus aureus
[16] = test organism 7, Staphylococcus epidermidis
[17] = test organism 8, Staphylococcus epidermidis
[18] = test organism 12, Staphylococcus haemolyticus
[19] = test organism 13, Staphylococcus haemolyticus
[20] = test organism 14, Staphylococcus haemolyticus
[21] = test organism 21, Streptococcus mitis
[22] = test organism 22, Streptococcus mitis
[23] = test organism 23, Streptococcus mitis

| SMILES | Papp at 5 h, 100 μMole (in vitro) [×10⁻⁶ cm/s] | MEAN LAG TIME (in vitro) [min] | Minimal Inhibitory Concentration (MIC) (Acinetobacter baumannii) | Minimal Inhibitory Concentration (MIC) (Acinetobacter junii; [4]) | Minimal Inhibitory Concentration (MIC) (Acinetobacter junii; [5]) | Minimal Inhibitory Concentration (MIC) (Acinetobacter junii; [6]) | Minimal Inhibitory Concentration (MIC) [1, 7] | Minimal Inhibitory Concentration (MIC) [1, 8] | Minimal Inhibitory Concentration (MIC) (Enterobacter hormaechei; [10]) | Minimal Inhibitory Concentration (MIC) (Escherichia coli; [11]) | Minimal Inhibitory Concentration (MIC) (Escherichia coli; [12]) | Minimal Inhibitory Concentration (MIC) (Escherichia coli; [13]) | Minimal Inhibitory Concentration (MIC) (MRSE; test organism 9, MRSE) | Minimal Inhibitory Concentration (MIC) (MRSE; test organism 10, MRSE) | Minimal Inhibitory Concentration (MIC) (MRSE; test organism 11, MRSE) | Minimal Inhibitory Concentration (MIC) (MSSA) | Minimal Inhibitory Concentration (MIC) (Staphylococcus aureus; [14]) | Minimal Inhibitory Concentration (MIC) (Staphylococcus aureus; [15]) | Minimal Inhibitory Concentration (MIC) [2, 16] | Minimal Inhibitory Concentration (MIC) [2, 17] | also measured |
| --- | --- | --- | --- | --- | --- | --- | --- | --- | --- | --- | --- | --- | --- | --- | --- | --- | --- | --- | --- | --- | --- |
| Nc1c(F)c(N2CC3CCCNC3C2)c(F)c2c1c(=O)c(C(=O)O)cn2C1CC1 (racemic) [Compound 3 (racemic)] | 16.6 | 38 | 0.5 | ≦0.25 | 0.125 | >4 | 0.06 | >4 | 4 | 0.06 | ≦0.25 | >4 | >2 | >2 | >4 | >4 | ≦0.03 | 0.5 | 0.06 | >2 | Minimal Inhibitory Concentration (MIC) (Enterobacter hormaechei; [9]): 0.5; Minimal Inhibitory Concentration (MIC) [3, 18]: 0.125; Minimal Inhibitory Concentration (MIC) [3, 19]: 1; Minimal Inhibitory Concentration (MIC) [3, 20]: >4; Minimal Inhibitory Concentration (MIC) (Streptococcus mitis; [21]): 0.5; Minimal Inhibitory Concentration (MIC) (Streptococcus mitis; [22]): 0.06; Minimal Inhibitory Concentration (MIC) (Streptococcus mitis; [23]): 1 |
| CN1CCCC2CN(c3c(F)cc4c(=O)c(C(=O)O)cn(C5CC5)c4c3F)CC21 (stereo not drawn) [Compound 1] | 31.1 | 12 | 0.5 | ≦0.25 | ≦0.03 | 2 | 0.06 | >4 | 4 | 0.06 | ≦0.25 | >4 | >2 | >2 | >4 | >4 | 0.06 | ≦0.25 | 0.25 | >2 | permeability and lag characteristics among the compounds studied (in words) (in vitro): best permeability and lag characteristics of the compounds studied; Minimal Inhibitory Concentration (MIC) [3, 18]: 0.25; Minimal Inhibitory Concentration (MIC) [3, 19]: 2; Minimal Inhibitory Concentration (MIC) [3, 20]: >4; Minimal Inhibitory Concentration (MIC) (Streptococcus mitis; [21]): 0.5; Minimal Inhibitory Concentration (MIC) (Streptococcus mitis; [22]): 0.25; Minimal Inhibitory Concentration (MIC) (Streptococcus mitis; [23]): 2 |
| CN1CCCC2CN(c3cc4c(cc3F)c(=O)c(C(=O)O)cn4C3CC3)CC21 (stereo not drawn) [Compound 2] | 20.5 | 27 | ≦0.25 | ≦0.25 | 0.25 | >4 | ≦0.03 | >4 | >4 | 0.25 | ≦0.25 | >4 | >2 | >2 | >4 | >4 | 0.125 | ≦0.25 | 2 | >2 | permeability and lag characteristics among the compounds studied (in words) (in vitro): best permeability and lag characteristics of the compounds studied; Minimal Inhibitory Concentration (MIC) (Enterobacter hormaechei; [9]): 0.25; Minimal Inhibitory Concentration (MIC) [3, 18]: 1; Minimal Inhibitory Concentration (MIC) [3, 19]: >4; Minimal Inhibitory Concentration (MIC) [3, 20]: >4; Minimal Inhibitory Concentration (MIC) (Streptococcus mitis; [21]): ≦0.25; Minimal Inhibitory Concentration (MIC) (Streptococcus mitis; [22]): 0.5; Minimal Inhibitory Concentration (MIC) (Streptococcus mitis; [23]): >4 |
| Nc1c(F)c(N2CC3CCCNC3C2)c(F)c2c1c(=O)c(C(=O)O)cn2C1CC1 [Compound 3 (S,S)] | 13.6 | 45 | ≦0.25 | ≦0.25 | 0.06 | >4 | 0.5 | >4 | 4 | 0.06 | ≦0.25 | >4 | >2 | >2 | >4 | 4 | ≦0.03 | ≦0.25 | 0.5 | 0.5 | Minimal Inhibitory Concentration (MIC) [3, 18]: 0.125; Minimal Inhibitory Concentration (MIC) [3, 19]: 1; Minimal Inhibitory Concentration (MIC) [3, 20]: >4; Minimal Inhibitory Concentration (MIC) (Streptococcus mitis; [21]): ≦0.25; Minimal Inhibitory Concentration (MIC) (Streptococcus mitis; [22]): 0.125; Minimal Inhibitory Concentration (MIC) (Streptococcus mitis; [23]): 1 |

— patent US20120108557A1, “FLUOROQUINOLONE DERIVATIVES FOR OPHTHALMIC APPLICATIONS” (ALCON RESEARCH, LTD., priority 2008, published 2012)
